The text below walks through data of US11559545B2, “Inhibition of UCHL1 in high-grade serous ovarian cancer” (The Trustees of Indiana University, priority 2019, dated 2023).

Assay [1] has as its system HGSOC primary and metastatic tumors. Kind of assay: Transgenic TKO mouse model of HGSOC: growth and progression of primary and metastatic tumors after UCHL1 inhibition. The format is in vivo. An excerpt:
Triple mutant (TKO) mice are Pten and Dicer knockout and overexpress mutant p53 R172H (corresponding to human R175H mutant) (Pten−/− Dicer−/− and p53-R172H). These mice spontaneously developed primary tumors in the fallopian tube at age 4 months, which metastasize to other organs by 5-6 months. This model recapitulates metastatic tumor growth as in ovarian cancer patients. […] The tumors are circled using a dotted line and/or indicated with arrows.
FIGS. 11B and 11C illustrate the reduction in primary HGSOC tumor size with LDN treatment in mice aged 4-6 months.

Assay [2] has as its system UCHL1. To be noted: cited from earlier work.
Another assay relates to PSMA7. Briefly: PSMA7 RNA and protein levels in treated TKO mice. In kind it is in vivo, mouse. To be noted: treated TKO mice vs untreated TKO control, FIG. 12E.
The test system of another assay is Proteasome. Kind of assay: Proteasome activity in treated TKO mice. The format is in vivo, mouse. The conditions noted are these: treated TKO mice vs TKO CTL mice, FIG. 12E.
In assay [3] the test system is UCHL1. Briefly: Relative UCHL1 expression (qPCR) after DNA methylase inhibitor treatment in ovarian cancer cells. The format is cell-based. The conditions noted are these: 200 μM, day 2, HGSOC cell lines with mutant p53, FIG. 7I. On the procedure:
FIG. 7A depicts relative UCHL1 expression (qPCR) after treatment with DNA methylase inhibitor, 5AzaDC (200 μM, day3) in ovarian cancer cells. The following cell cultures were included in the analysis: HeyA8 (WT p53), SKOV3 (p53 null), OVCAR5 (p53 null), Kuramochi (mutant p53), and OVCAR4 (mutant p53).
FIG. 7H depicts relative UCHL1 expression (qPCR) after treatment with DNA methylase inhibitor, 5AzaDC (200 μM, day 2) in ovarian cancer cells with wild-type p53 (HeyA8 and A2780), ovarian cancer cells with p53-null mutations (OVCAR5 and SKOV3) and normal fallopian tube cells with wild-type p53 (FTE282).
FIG. 7I illustrates that no change in UCHL1 levels were detected with treatment with DNA methylase inhibitor 5AzaDC (200 μM, day 2) in HGSOC cell lines with mutant p53.
In general terms: In qPCR the cycle at which signal appears reflects the starting amount.

Structures are written as SMILES.

For the molecule `CC(=O)O/N=C1\C(=O)N(Cc2cc(Cl)ccc2Cl)c2ccc(Cl)cc21` [LDN-57444], in assay [1] (TKO mice (Pten-/- Dicer-/- p53-R172H) vs TKO control, FIG. 11A), the primary tumor entry is “visible reduction”. The “metastatic tumors in the omentum, diaphragm, mesentery, and peritoneal wall” value in assay [1] (TKO mice vs TKO control, FIG. 11A) is on record as “absence”. In assay [1] (mice aged 4-6 months, FIGS. 11B and 11C), the “primary HGSOC tumor size” value was “reduction”. In addition, the “mode of UCHL1 inhibition” value with UCHL1 [2] is on record as “competitive, reversible, active site-directed inhibitor”. In addition, in the assay on PSMA7, the “PSMA7 RNA levels” value was “reduced” and the PSMA7 protein levels entry is listed as “reduced”. Besides, the Proteasome activity result in the assay with Proteasome is listed as “significantly reduced”.

Turning to `Nc1ncn([C@H]2C[C@H](O)[C@@H](CO)O2)c(=O)n1` [5AzaDC], the UCHL1 levels entry with UCHL1 [3] is “no change”.
